# Reference: ChEMBL document CHEMBL1201862, “PubChem BioAssay data set” (2004)
#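 Cells were grown in 96-well plates and exposed to each compound for 48 hours at five concentrations; endpoints were interpolated linearly between bracketing concentrations, or set to the highest concentration if not reached. The concentration for 50% growth inhibition is given as GI50.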 The source made the active and inactive calls. Rule as the data show it: active = GI50 up to about 1.1 µM and inactive = higher.
# Experiments:
# Experiment in all cases: growth of human tumour cells (NCI), 48 h
# HCC 2998 = tested on: HCC 2998
# NCI/ADR-RES = tested on: NCI/ADR-RES
# CCRF-CEM = tested on: CCRF-CEM
# KM12 = tested on: KM12
# OVCAR-3 = tested on: OVCAR-3
# RPMI-8226 = tested on: RPMI-8226
# SW-620 = tested on: SW-620
# SR = tested on: SR
# SNB-19 = tested on: SNB-19
# RXF 393 = tested on: RXF 393
# Hs-578T = tested on: Hs-578T
# A549 = tested on: A549
# HT-29 = tested on: HT-29
# MOLT-4 = tested on: MOLT-4
# HOP-62 = tested on: HOP-62
# SF-295 = tested on: SF-295
# SK-MEL-28 = tested on: SK-MEL-28
# SK-OV-3 = tested on: SK-OV-3
# DU-145 = tested on: DU-145
# TK-10 = tested on: TK-10
# M14 = tested on: M14
# NCI-H460 = tested on: NCI-H460
# OVCAR-5 = tested on: OVCAR-5
# OVCAR-8 = tested on: OVCAR-8
# MDA-N = tested on: MDA-N
# IGROV-1 = tested on: IGROV-1
# A498 = tested on: A498
# NCI-H226 = tested on: NCI-H226
# CAKI-1 = tested on: CAKI-1
# K562 = tested on: K562
# COLO 205 = tested on: COLO 205
# UACC-257 = tested on: UACC-257
# U-251 = tested on: U-251
# SNB-75 = tested on: SNB-75
# PC-3 = tested on: PC-3
# ACHN = tested on: ACHN
# SF-539 = tested on: SF-539
# NCI-H522 = tested on: NCI-H522
# BT-549 = tested on: BT-549
# Malme-3M = tested on: Malme-3M
# SK-MEL-2 = tested on: SK-MEL-2
# LOX IMVI = tested on: LOX IMVI
# HCT-15 = tested on: HCT-15
# HOP-92 = tested on: HOP-92
# UO-31 = tested on: UO-31
# 786-0 = tested on: 786-0
# HCT-116 = tested on: HCT-116
# MCF7 = tested on: MCF7
# OVCAR-4 = tested on: OVCAR-4
# EKVX = tested on: EKVX
# NCI-H23 = tested on: NCI-H23
# UACC-62 = tested on: UACC-62
# HL-60 = tested on: HL-60
# MDA-MB-435 = tested on: MDA-MB-435
# SN12C = tested on: SN12C
# SF-268 = tested on: SF-268
# SK-MEL-5 = tested on: SK-MEL-5
# T47D = tested on: T47D
smiles,measurement,setting,value
CC1C=CN(N(C)C)C2=C1C(=O)c1cnccc1C2=O (stereo not drawn),GI50,HCC 2998,589 nM (active)
same,GI50,NCI/ADR-RES,927 nM (active)
same,GI50,CCRF-CEM,2090 nM (inactive)
same,GI50,KM12,1240 nM (inactive)
same,GI50,OVCAR-3,792 nM (active)
same,GI50,RPMI-8226,531 nM (active)
same,GI50,SW-620,395 nM (active)
same,GI50,SR,15.6 nM (active)
same,GI50,SNB-19,832 nM (active)
same,GI50,RXF 393,408 nM (active)
same,GI50,Hs-578T,693 nM (active)
same,GI50,A549,331 nM (active)
same,GI50,HT-29,617 nM (active)
same,GI50,MOLT-4,1760 nM (inactive)
same,GI50,HOP-62,349 nM (active)
same,GI50,SF-295,676 nM (active)
same,GI50,SK-MEL-28,453 nM (active)
same,GI50,SK-OV-3,682 nM (active)
same,GI50,DU-145,372 nM (active)
same,GI50,TK-10,513 nM (active)
same,GI50,M14,424 nM (active)
same,GI50,NCI-H460,148 nM (active)
same,GI50,OVCAR-5,1370 nM (inactive)
same,GI50,OVCAR-8,883 nM (active)
same,GI50,MDA-N,133 nM (active)
same,GI50,IGROV-1,244 nM (active)
same,GI50,A498,1290 nM (inactive)
same,GI50,NCI-H226,508 nM (active)
same,GI50,CAKI-1,108 nM (active)
same,GI50,K562,205 nM (active)
same,GI50,COLO 205,1120 nM (inactive)
same,GI50,UACC-257,212 nM (active)
same,GI50,U-251,417 nM (active)
same,GI50,SNB-75,315 nM (active)
same,GI50,PC-3,1490 nM (inactive)
same,GI50,ACHN,251 nM (active)
same,GI50,SF-539,293 nM (active)
same,GI50,NCI-H522,170 nM (active)
same,GI50,BT-549,355 nM (active)
same,GI50,Malme-3M,334 nM (active)
same,GI50,SK-MEL-2,1630 nM (inactive)
same,GI50,LOX IMVI,129 nM (active)
same,GI50,HCT-15,231 nM
same,GI50,HOP-92,2070 nM (inactive)
same,GI50,UO-31,167 nM (active)
same,GI50,786-0,195 nM (active)
same,GI50,HCT-116,306 nM (active)
same,GI50,MCF7,274 nM (active)
same,GI50,OVCAR-4,662 nM (active)
same,GI50,EKVX,590 nM (active)
same,GI50,NCI-H23,261 nM (active)
same,GI50,UACC-62,167 nM (active)
same,GI50,HL-60,1470 nM (inactive)
same,GI50,MDA-MB-435,186 nM (active)
same,GI50,SN12C,168 nM (active)
same,GI50,SF-268,975 nM (active)
same,GI50,SK-MEL-5,274 nM (active)
same,GI50,T47D,1830 nM (inactive)
